From patent US6358885B1, “Substituted phenylheterocyclic herbicides” (Mississippi State University, priority 1992, dated 2002)

Key:
Assay in all cases: Test G preemergence/postemergence greenhouse plant response rating 0 to 100
smooth crabgrass = type: in vivo, Digitaria ischaemum; conditions: 0 to 100 scale
Procedure, shortened: (§1)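 Scoring: visual injury at 13 to 21 days post-application, compared with untreated controls. Planting: one species per pot in greenhouse medium. Dosing: compound in non-phytotoxic solvent, within one day of sowing for preemergence or at 2–4 leaves for postemergence.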

common purslane = type: in vivo, Portulaca oleracea; conditions: 0 to 100 scale
Procedure, shortened: as §1

annual bluegrass = type: in vivo, Poa annua; conditions: 0 to 100 scale
Procedure, shortened: as §1

johnsongrass = type: in vivo, Sorghum halepense; conditions: 0 to 100 scale
Procedure, shortened: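 Greenhouse pots, one species each; non-phytotoxic solvent vehicle. Read-out: visual injury vs untreated, 13–21 DAT. Dash denotes no result.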

broadleaf signalgrass = type: in vivo, Brachiaria plantaginea; conditions: 0 to 100 scale
Procedure, shortened: as §1

yellow nutsedge = type: in vivo, Cyperus esculentus; conditions: Rate 125 g/ha, 0 to 100 scale
Procedure, shortened: as §1

large crabgrass = type: in vivo, Digitaria sanguinalis; conditions: 0 to 100 scale
Procedure, shortened: as §1

guineagrass = type: in vivo, Panicum maximum; conditions: 0 to 100 scale
Procedure, shortened: as §1

pitted morningglory = type: in vivo, Ipomoea lacunosa; conditions: 0 to 100 scale
Procedure, shortened: as §1

peanut = type: in vivo, Arachis hypoagaea; conditions: 0 to 100 scale
Procedure, shortened: as §1

common ragweed = type: in vivo, Ambrosia elatior; conditions: 0 to 100 scale
Procedure, shortened: as §1

goosegrass = type: in vivo, Eleusine indica; conditions: 0 to 100 scale
Procedure, shortened: as §1

dallisgrass = type: in vivo, Paspalum dilatatum; conditions: 0 to 100 scale
Procedure, shortened: as §1

alfalfa = type: in vivo, Medicago ativa; conditions: 0 to 100 scale
Procedure, shortened: as §1

bermudagrass = type: in vivo, Cynodon dactylon; conditions: 0 to 100 scale
Procedure, shortened: as §1

purple nutsedge = type: in vivo, Cyperus rotundus; conditions: Rate 125 g/ha, 0 to 100 scale
Procedure, shortened: as §1

itchgrass = type: in vivo, Rottboellia exaltata; conditions: 0 to 100 scale
Procedure, shortened: as §1

C#CCN1C(=O)COc2cc(F)c(-c3nn4c(c3Cl)CCCC4)cc21 [Compound 34]
Plant response rating, Smooth Crabgras (smooth crabgrass; POSTEMERGENCE, Rate 125 g/ha): 0 | Plant response rating, Smooth Crabgras (smooth crabgrass; POSTEMERGENCE, Rate 250 g/ha): 0 | Plant response rating, Smooth Crabgras (smooth crabgrass; PREEMERGENCE, Rate 125 g/ha): 0 | Plant response rating, Smooth Crabgras (smooth crabgrass; PREEMERGENCE, Rate 250 g/ha): 80 | Plant response rating, Cmn Purslane (common purslane; POSTEMERGENCE, Rate 125 g/ha): 100 | Plant response rating, Cmn Purslane (common purslane; POSTEMERGENCE, Rate 250 g/ha): 100 | Plant response rating, Cmn Purslane (common purslane; PREEMERGENCE, Rate 125 g/ha): 0 | Plant response rating, Cmn Purslane (common purslane; PREEMERGENCE, Rate 250 g/ha): 100 | Plant response rating, Ann Bluegrass (annual bluegrass; POSTEMERGENCE, Rate 125 g/ha): 0 | Plant response rating, Ann Bluegrass (annual bluegrass; POSTEMERGENCE, Rate 250 g/ha): 0 | Plant response rating, Ann Bluegrass (annual bluegrass; PREEMERGENCE, Rate 125 g/ha): 0 | Plant response rating, Ann Bluegrass (annual bluegrass; PREEMERGENCE, Rate 250 g/ha): 50 | Plant response rating, Johnsongrass (johnsongrass; POSTEMERGENCE, Rate 125 g/ha): 0 | Plant response rating, Johnsongrass (johnsongrass; POSTEMERGENCE, Rate 250 g/ha): 0 | Plant response rating, Johnsongrass (johnsongrass; PREEMERGENCE, Rate 125 g/ha): 0 | Plant response rating, Johnsongrass (johnsongrass; PREEMERGENCE, Rate 250 g/ha): 0 | Plant response rating, Brdlf Sgnlgrass (broadleaf signalgrass; POSTEMERGENCE, Rate 125 g/ha): 0 | Plant response rating, Brdlf Sgnlgrass (broadleaf signalgrass; POSTEMERGENCE, Rate 250 g/ha): 0 | Plant response rating, Brdlf Sgnlgrass (broadleaf signalgrass; PREEMERGENCE, Rate 125 g/ha): 0 | Plant response rating, Brdlf Sgnlgrass (broadleaf signalgrass; PREEMERGENCE, Rate 250 g/ha): 0 | Plant response rating, Yellow Nutsedge (yellow nutsedge; POSTEMERGENCE): 0 | Plant response rating, Yellow Nutsedge (yellow nutsedge; PREEMERGENCE): 0 | Plant response rating, Large Crabgrass (large crabgrass; POSTEMERGENCE, Rate 125 g/ha): 0 | Plant response rating, Large Crabgrass (large crabgrass; POSTEMERGENCE, Rate 250 g/ha): 0 | Plant response rating, Large Crabgrass (large crabgrass; PREEMERGENCE, Rate 125 g/ha): 0 | Plant response rating, Large Crabgrass (large crabgrass; PREEMERGENCE, Rate 250 g/ha): 60 | Plant response rating, Guineagrass (guineagrass; POSTEMERGENCE, Rate 125 g/ha): 0 | Plant response rating, Guineagrass (guineagrass; POSTEMERGENCE, Rate 250 g/ha): 0 | Plant response rating, Guineagrass (guineagrass; PREEMERGENCE, Rate 125 g/ha): 0 | Plant response rating, Guineagrass (guineagrass; PREEMERGENCE, Rate 250 g/ha): 0 | Plant response rating, Pit Morninglory (pitted morningglory; POSTEMERGENCE, Rate 125 g/ha): 30 | Plant response rating, Pit Morninglory (pitted morningglory; POSTEMERGENCE, Rate 250 g/ha): 50 | Plant response rating, Pit Morninglory (pitted morningglory; PREEMERGENCE, Rate 125 g/ha): 0 | Plant response rating, Pit Morninglory (pitted morningglory; PREEMERGENCE, Rate 250 g/ha): 30 | Plant response rating, Peanuts (peanut; POSTEMERGENCE, Rate 125 g/ha): 30 | Plant response rating, Peanuts (peanut; POSTEMERGENCE, Rate 250 g/ha): 0 | Plant response rating, Peanuts (peanut; PREEMERGENCE, Rate 125 g/ha): 0 | Plant response rating, Peanuts (peanut; PREEMERGENCE, Rate 250 g/ha): 0 | Plant response rating, Cmn Ragweed (common ragweed; POSTEMERGENCE, Rate 125 g/ha): 70 | Plant response rating, Cmn Ragweed (common ragweed; POSTEMERGENCE, Rate 250 g/ha): 100 | Plant response rating, Cmn Ragweed (common ragweed; PREEMERGENCE, Rate 125 g/ha): 0 | Plant response rating, Cmn Ragweed (common ragweed; PREEMERGENCE, Rate 250 g/ha): 0 | Plant response rating, Goosegrass (goosegrass; POSTEMERGENCE, Rate 125 g/ha): 0 | Plant response rating, Goosegrass (goosegrass; POSTEMERGENCE, Rate 250 g/ha): 0 | Plant response rating, Goosegrass (goosegrass; PREEMERGENCE, Rate 125 g/ha): 0 | Plant response rating, Goosegrass (goosegrass; PREEMERGENCE, Rate 250 g/ha): 30 | Plant response rating, Dallisgrass (dallisgrass; POSTEMERGENCE, Rate 125 g/ha): 0 | Plant response rating, Dallisgrass (dallisgrass; POSTEMERGENCE, Rate 250 g/ha): 0 | Plant response rating, Dallisgrass (dallisgrass; PREEMERGENCE, Rate 125 g/ha): 0 | Plant response rating, Dallisgrass (dallisgrass; PREEMERGENCE, Rate 250 g/ha): 80 | Plant response rating, Alfalfa Var. (alfalfa; POSTEMERGENCE, Rate 125 g/ha): 40 | Plant response rating, Alfalfa Var. (alfalfa; POSTEMERGENCE, Rate 250 g/ha): 60 | Plant response rating, Alfalfa Var. (alfalfa; PREEMERGENCE, Rate 125 g/ha): 0 | Plant response rating, Alfalfa Var. (alfalfa; PREEMERGENCE, Rate 250 g/ha): 100 | Plant response rating, Bermudagrass (bermudagrass; POSTEMERGENCE, Rate 125 g/ha): 0 | Plant response rating, Bermudagrass (bermudagrass; POSTEMERGENCE, Rate 250 g/ha): 0 | Plant response rating, Bermudagrass (bermudagrass; PREEMERGENCE, Rate 125 g/ha): 0 | Plant response rating, Bermudagrass (bermudagrass; PREEMERGENCE, Rate 250 g/ha): 0 | Plant response rating, Purple Nutsedge (purple nutsedge; POSTEMERGENCE): 20 | Plant response rating, Purple Nutsedge (purple nutsedge; PREEMERGENCE): 0 | Plant response rating, Itchgrass (itchgrass; POSTEMERGENCE, Rate 125 g/ha): 0 | Plant response rating, Itchgrass (itchgrass; POSTEMERGENCE, Rate 250 g/ha): 0 | Plant response rating, Itchgrass (itchgrass; PREEMERGENCE, Rate 125 g/ha): 0 | Plant response rating, Itchgrass (itchgrass; PREEMERGENCE, Rate 250 g/ha): 20
